Data reported in patent EP4813993A1, “COMPOUND, PREPARATION METHOD THEREFOR, AND USE THEREOF” (Sichuan Kelun Pharmaceutical Research Institute Co., Ltd., priority 2023, dated 2025).

Columns and labels:
Nav1.8 channels = target: T1, Nav1.8 channels (Homo sapiens, UniProt Q9Y5Y9); experiment: Manual patch-clamp, current of stably overexpressed Nav1.8 channels (resting state voltage program); type: cell-based; settings: for inhibition at 0.01 µM / inhibition at 0.001 µM: read-out: Inhibition rate %
T1 construct: expressed in transfected cells
Summary of the method: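 Whole-cell manual patch clamp on cells stably overexpressing Nav1.8, held at -120 mV and stepped to 0 mV for 50 ms every 20 s (resting-state protocol). Compounds were perfused in ascending concentrations, each for 5 min or until stable; block of peak current was calculated at steady state.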

[1] = Pharmacokinetic study in ICR mice; type: in vivo; settings: male, mouse, plasma
Procedure: Experimental Example 3: Pharmacokinetic study of compounds in ICR mice
Experimental animals: ICR mice, male, 6-8 weeks old.
Compound preparation: 5% (final preparation volume) of DMSO was added to dissolve the test compound, and then 10% (final preparation volume) of Cremophor EL and 85% Saline were sequentially added.
The injection group was given free access to food and water. The oral group was fasted overnight (> 12 h) with free access to water, and was fed 4 h after administration. Blood samples were collected from the jugular vein of ICR mice at the following time points: 5 min, 15 min, 0.5 h, 1 h, 2 h, 4 h, 8 h, and 24 h after injection administration; 15 min, 0.5 h, 1 h, 2 h, 4 h, 6 h, 8 h, and 24 h after oral administration. The collected blood samples were anticoagulated, placed in an ice bath, and then centrifuged for 5 min to separate plasma. The plasma was stored at -70 °C for analysis.
Sample test: The concentrations of the designated compound drugs in plasma were determined by the LC-MS/MS method; the main pharmacokinetic parameters were calculated using the Winnolin 8.3 non-compartmental model. Pharmacokinetic test results of some compounds of the present disclosure in ICR mice

formalin pain model = experiment: Rat formalin pain model; type: in vivo, SD rats
Procedure: Experimental Example 10: Pharmacodynamic effect study of compounds in rat formalin pain model
Experimental animals: SD rats, male, 180-200 g.
Compound preparation: 5% (final preparation volume) of DMSO was added to dissolve the test compound, and then 10% (final preparation volume) of Cremophor EL and 85% Saline were sequentially added; an appropriate amount of Etoricoxib was weighed, 5% (final preparation volume) of DMSO was added to dissolve the test compound, and then 5% (final preparation volume) of HS-15 and 90% Saline were sequentially added; the tramadol injection was diluted with normal saline to the desired concentration.
Each group consisted of 10 animals, and 50 µL of a 5% formalin solution was injected using a microsyringe into the right plantar region.
2. Administration and test
Based on different pharmacokinetic properties of the drugs, the administration was performed at 0 min, 60 min, and 120 min before modeling. After injection of the formalin, the number of pain responses in the rats was observed. […] Spontaneous pain responses were observed once every 5 min, and the number of pain responses in the rats within 1 min was counted, with a total observation duration of 60 min. Inhibition rate = (number of pain responses in control group - number of pain responses in administration group)/number of pain responses in control group × 100%.
Table 12. Administration information of compounds of the present disclosure in rat formalin model

T1 sequence (Q9Y5Y9 whole entry): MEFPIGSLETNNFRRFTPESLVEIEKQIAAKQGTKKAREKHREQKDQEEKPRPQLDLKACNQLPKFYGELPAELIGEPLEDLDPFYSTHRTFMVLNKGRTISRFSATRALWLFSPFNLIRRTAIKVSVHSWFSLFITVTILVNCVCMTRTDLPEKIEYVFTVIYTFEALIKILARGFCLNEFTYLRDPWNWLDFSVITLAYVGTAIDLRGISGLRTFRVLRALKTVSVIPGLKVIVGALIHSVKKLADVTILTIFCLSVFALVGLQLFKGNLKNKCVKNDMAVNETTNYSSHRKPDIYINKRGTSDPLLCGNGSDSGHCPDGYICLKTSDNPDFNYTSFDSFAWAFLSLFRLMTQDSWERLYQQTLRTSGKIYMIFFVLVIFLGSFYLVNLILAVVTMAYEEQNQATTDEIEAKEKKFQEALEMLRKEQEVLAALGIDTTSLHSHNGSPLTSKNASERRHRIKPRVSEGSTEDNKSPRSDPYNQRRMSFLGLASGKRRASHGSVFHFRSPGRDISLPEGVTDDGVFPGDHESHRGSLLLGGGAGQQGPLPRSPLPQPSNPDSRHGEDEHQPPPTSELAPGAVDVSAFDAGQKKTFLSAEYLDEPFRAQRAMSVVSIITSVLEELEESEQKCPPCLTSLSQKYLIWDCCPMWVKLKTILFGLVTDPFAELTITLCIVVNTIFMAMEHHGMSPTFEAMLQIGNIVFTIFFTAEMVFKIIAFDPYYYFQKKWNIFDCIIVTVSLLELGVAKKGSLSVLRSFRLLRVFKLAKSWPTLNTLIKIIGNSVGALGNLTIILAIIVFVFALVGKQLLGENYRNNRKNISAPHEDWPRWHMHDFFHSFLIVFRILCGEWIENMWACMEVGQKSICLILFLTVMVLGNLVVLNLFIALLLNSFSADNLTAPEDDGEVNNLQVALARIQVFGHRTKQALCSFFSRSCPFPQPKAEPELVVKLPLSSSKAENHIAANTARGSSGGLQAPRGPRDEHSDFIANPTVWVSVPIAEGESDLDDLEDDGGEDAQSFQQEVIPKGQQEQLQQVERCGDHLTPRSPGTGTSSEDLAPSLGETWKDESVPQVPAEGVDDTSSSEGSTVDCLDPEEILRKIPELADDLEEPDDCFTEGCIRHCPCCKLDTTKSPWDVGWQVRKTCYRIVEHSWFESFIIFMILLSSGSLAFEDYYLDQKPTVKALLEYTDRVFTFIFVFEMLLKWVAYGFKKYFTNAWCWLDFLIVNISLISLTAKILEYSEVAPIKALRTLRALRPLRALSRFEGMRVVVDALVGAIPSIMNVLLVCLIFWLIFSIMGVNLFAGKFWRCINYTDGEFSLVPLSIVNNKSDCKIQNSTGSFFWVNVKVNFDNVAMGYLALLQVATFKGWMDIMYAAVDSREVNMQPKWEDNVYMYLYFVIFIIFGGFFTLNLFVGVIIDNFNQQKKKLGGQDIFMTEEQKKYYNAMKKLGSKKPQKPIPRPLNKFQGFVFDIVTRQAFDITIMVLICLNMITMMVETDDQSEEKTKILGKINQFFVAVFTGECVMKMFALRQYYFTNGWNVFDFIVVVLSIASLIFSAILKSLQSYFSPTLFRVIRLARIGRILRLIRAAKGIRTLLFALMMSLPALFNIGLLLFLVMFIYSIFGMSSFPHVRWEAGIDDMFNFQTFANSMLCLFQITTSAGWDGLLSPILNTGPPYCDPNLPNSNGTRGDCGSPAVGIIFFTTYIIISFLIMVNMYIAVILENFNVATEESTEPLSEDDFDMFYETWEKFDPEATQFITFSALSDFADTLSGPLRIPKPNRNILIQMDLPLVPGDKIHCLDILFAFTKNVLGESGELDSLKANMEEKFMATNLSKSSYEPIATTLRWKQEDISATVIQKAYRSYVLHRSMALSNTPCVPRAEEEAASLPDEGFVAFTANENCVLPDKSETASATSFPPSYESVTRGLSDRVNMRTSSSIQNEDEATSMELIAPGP

Row | Compound | inhibition at 0.01 µM (Nav1.8 channels; concentration of 10 nM) [%] | inhibition at 0.001 µM (Nav1.8 channels; concentration of 1 nM) [%] | other results
1 | COc1c([C@@H]2C[C@](C)(C(F)(F)F)S[C@H]2C(=O)Nc2ccc(F)c(OS(N)(=O)=O)c2)ccc(F)c1F [a-32-A] |  |  | IC50 (Nav1.8 channels): 0.1 nM; AUC(0-inf) ([1]; Oral administration, 10 mg/kg): 22900 ng·h/mL; AUC(0-inf) ([1]; iv, Injection (i.v.), 2 mg/kg): 7390 ng·h/mL
2 | COc1cccc(C2(O)CCCCC2CN(C)C)c1 (centres unmarked) [Tramadol] |  |  | Number of pain responses 0 min (formalin pain model; SD rats, 10 mg/kg i.v. immediately before 5% formalin, 0 min, Mean + SD, n = 10): 31.9±15.0; Number of pain responses 10 min (formalin pain model; SD rats, 10 mg/kg i.v. immediately before 5% formalin, 10 min, Mean + SD, n = 10): 1.9±3.0; Number of pain responses 15 min (formalin pain model; SD rats, 10 mg/kg i.v. immediately before 5% formalin, 15 min, Mean + SD, n = 10): 4.1±4.4; Number of pain responses 30 min (formalin pain model; SD rats, 10 mg/kg i.v. immediately before 5% formalin, 30 min, Mean + SD, n = 10): 12.8±6.7; Number of pain responses 40 min (formalin pain model; SD rats, 10 mg/kg i.v. immediately before 5% formalin, 40 min, Mean + SD, n = 10): 13.2±8.1; Number of pain responses 50 min (formalin pain model; SD rats, 10 mg/kg i.v. immediately before 5% formalin, 50 min, Mean + SD, n = 10): 8.6±3.6; Number of pain responses 60 min (formalin pain model; SD rats, 10 mg/kg i.v. immediately before 5% formalin, 60 min, Mean + SD, n = 10): 9.3±5.1; analgesic activity in the first and second phases (formalin pain model; rat formalin pain model, first phase immediately after injection, second phase about 15-20 min after): superior analgesic effects in the first and second phases, respectively
3 | [2H]C1(C(=O)Nc2ccnc(O)c2)SC(C)(C(F)(F)F)CC1c1ccc(F)c(F)c1OC (stereo not drawn) [Compound 222, 3-(3,4-difluoro-2-methoxyphenyl)-N-(2-hydroxypyridin-4-yl)-5-methyl-5-(trifluoromethyl)tetrahydrothiophene-2-d-2-carboxamide] | 97 |  | 
4 | COc1c(C2CC(C)(C(F)(F)F)SC2C(=O)Nc2ccnc(N=S(C)(C)=O)c2)ccc(F)c1F (centres unmarked) [a-10, 3-(3,4-difluoro-2-methoxyphenyl)-N-(2-((dimethyl(oxo)-16-sulfanylidene)amino)pyridin-4-yl)-5-methyl-5-(trifluoromethyl)tetrahydrothiophene-2-carboxamide] | 88 |  | 
5 | COc1c(C2CC(C)(C(F)(F)F)SC2C(=O)Nc2ccnc(N)c2)ccc(F)c1F (centres unmarked) [Compound 175, (4-(3-(3,4-difluoro-2-methoxyphenyl)-5-methyl-5-(trifluoromethyl)tetrahydrothiophene-2-carboxamido)-2-amino)pyridine] |  | 87.8 | 
6 | COc1c(C2CC(C)(C(F)(F)F)SC2C(=O)Nc2ccnc(S(C)(=O)=O)c2)ccc(F)c1F (centres unmarked) [Compound 192, (4-(3-(3,4-difluoro-2-methoxyphenyl)-5-methyl-5-(trifluoromethyl)tetrahydrothiophene-2-carboxamido)-2-methylsulfonyl)pyridine] | 96.4 |  | 
7 | COc1c([C@@H]2C[C@](C)(C(F)(F)F)S[C@H]2C(=O)Nc2cccc(-c3ncon3)c2)ccc(F)c1F [a-42-A, (2R,3S,5R)-N-(3-(1,2,4-oxadiazol-3-yl)phenyl)-3-(3,4-difluoro-2-methoxyphenyl)-5-methyl-5-(trifluoromethyl)tetrahydrothiophene-2-carboxamide] |  | 42 | 
8 | [2H][C@@]1(C(=O)Nc2cccc(B(O)O)c2)S[C@@](C)(C(F)(F)F)C[C@H]1c1ccc(F)c(F)c1OC [Compound 10-A] | 87.5 |  | 
9 | COc1c([C@@H]2C[C@](C)(C(F)(F)F)S[C@H]2C(=O)N(O)c2ccnc(-c3ncon3)c2)ccc(F)c1F [a-46-A, (2R,3S,5R)-N-(2-(1,2,4-oxadiazol-3-yl)pyridin-4-yl)-3-(3,4-difluoro-2-methoxyphenyl)-N-hydroxy-5-methyl-5-(trifluoromethyl)tetrahydrothiophene-2-carboxamide] |  | 46.7 | 
10 | COc1c(C2CC(C)(C(F)(F)F)SC2C(=O)Nc2ccc3c(c2)B(O)OC3)ccc(F)c1F (centres unmarked) [Compound 31, 3-(3,4-difluoro-2-methoxyphenyl)-N-(1-hydroxy-1,3-dihydrobenzo[c][1,2]oxaborol-6-yl)-5-methyl-5-(trifluoromethyl)tetrahydrothiophene-2-carboxamide] | 65 |  | 
11 | COc1c(C2CC(C)(C(F)(F)F)SC2C(=O)Nc2cccc(S(C)(=N)=O)c2)ccc(F)c1F (centres unmarked) [Compound 225, 3-(3,4-difluoro-2-methoxyphenyl)-5-methyl-N-(3-(S-methylsulfonimidoyl)phenyl)-5-(trifluoromethyl)tetrahydrothiophene-2-carboxamide] |  | 91.2 | 
12 | COc1c([C@@H]2C[C@](C)(C(F)(F)F)S[C@H]2C(=O)Nc2cccc(B3OC(=O)CN(C)CC(=O)O3)c2)ccc(F)c1F [a-35-A, (2R,3S,5R)-3-(3,4-difluoro-2-methoxyphenyl)-5-methyl-N-(3-(6-methyl-4,8-dioxo-1,3,6,2-diazaborinin-2-yl)phenyl)-5-(trifluoromethyl)tetrahydrothiophene-2-carboxamide] |  |  | IC50 (Nav1.8 channels): 0.69 nM
13 | COc1c(C2CC(C)(C)SC2C(=O)Nc2ccnc(C(N)=O)c2)ccc(F)c1F (centres unmarked) [Compound 134-A, 4-(3-(3,4-difluoro-2-methoxyphenyl)-5,5-dimethyltetrahydrothiophene-2-carboxamido)picolinamide] |  |  | Inhibition rate (%) (Nav1.8 channels; concentration of 10 nM, 0.01 µM): 87.78%
14 | [2H][C@@]1(C(=O)Nc2ccnc(C(N)=O)c2)S[C@@](C)(C(F)(F)F)C[C@H]1c1ccc(F)c(F)c1OC [Compound 140-A, 4-((2R,3S,5R)-3-(3,4-difluoro-2-methoxyphenyl)-5-methyl-5-(trifluoromethyl)tetrahydrothiophene-2-carboxamido-2-d)picolinamide] | 96.2 |  | 
15 | COc1c([C@@H]2C[C@](C)(C(F)(F)F)S[C@H]2C(=O)Nc2ccc3c(c2)B(O)OC3)ccc(F)c1F [Compound 31-A, (2R,3S,5R)-3-(3,4-difluoro-2-methoxyphenyl)-N-(1-hydroxy-1,3-dihydrobenzo[c][1,2]oxaborol-6-yl)-5-methyl-5-(trifluoromethyl)tetrahydrothiophene-2-carboxamide] | 84.7 |  | 
16 | COc1c(C2CC(C)(C(F)(F)F)SC2C(=O)Nc2cccc(NS(=O)(=O)CCN)c2)ccc(F)c1F (centres unmarked) [a-25, N-(3-((2-aminoethyl)sulfonamido)phenyl)-3-(3,4-difluoro-2-methoxyphenyl)-5-methyl-5-(trifluoromethyl)tetrahydrothiophene-2-carboxamide] | 96.5 |  | 
17 | COc1c(C2CC(C)(C(F)(F)F)SC2C(=O)Nc2ccc(F)c(N=S(C)(C)=O)c2)ccc(F)c1F (centres unmarked) [a-22, 3-(3,4-difluoro-2-methoxyphenyl)-N-(3-((dimethyl(oxo)-16-sulfonamido)amino)-4-fluorophenyl)-5-methyl-5-(trifluoromethyl)tetrahydrothiophene-2-carboxamide] |  |  | Inhibition rate (%) (Nav1.8 channels; concentration of 1 nM, 0.001 µM): 80.7%
18 | COc1c([C@@H]2C[C@](C)(C(F)(F)F)S[C@H]2C(=O)Nc2ccc3c(c2)S(=O)(=O)NCN3)ccc(F)c1F [a-26-A, (2R,3S,5R)-3-(3,4-difluoro-2-methoxyphenyl)-N-(1,1-dioxide-3,4-dihydro-2H-benzo[e][1,2,4]thiadiazin-7-yl)-5-methyl-5-(trifluoromethyl)tetrahydrothiophene-2-carboxamide] | 95.6 |  | 
19 | COc1c([C@@H]2C[C@](C)(C(F)(F)F)S[C@H]2C(=O)Nc2ccnc(C(=O)NO)c2)ccc(F)c1F [a-87-A, 4-((2R,3S,5R)-3-(3,4-difluoro-2-methoxyphenyl)-5-methyl-5-(trifluoromethyl)tetrahydrothiophene-2-carboxamido)-N-hydroxypicolinamide] |  | 47.7 | 
20 | CCS(=O)(=O)Nc1cccc(NC(=O)[C@@H]2S[C@@](C)(C(F)(F)F)C[C@H]2c2ccc(F)c(F)c2OC)c1 [a-44-A, (2R,3S,5R)-3-(3,4-difluoro-2-methoxyphenyl)-N-(3-(ethylsulfonamido)phenyl)-5-methyl-5-(trifluoromethyl)tetrahydrothiophene-2-carboxamide] |  | 49.9 | 
